Data published in patent US9567371B2, “Short beta-defensin-derived peptides” (Yeda Research and Development Co. Ltd., priority 2009, dated 2017).
Peptide text beside a SMILES is read from it.

System: G2 cells
Assay: Homing assay of pretreated G2 cells in NOD/SCID mice
Assay type: in vivo, mouse
Conditions: 10 μM pretreatment 3 hrs, i.v. into non-irradiated NOD/SCID mice, 16 hrs
Experimental: FIGS. 8A-8D. Effect of TL-1 and cyclic TL-1 on in vitro and in vivo cell migration. (A, C) Human CD3^+, G2, cord blood CD34^+ and peripheral blood mononuclear (PBMC) cells were preincubated with 1 and 10 μM TL-1 for 3 hrs in serum free medium, washed and allowed to migrate towards SDF-1. Migrated cells were collected and calculated by flow cytometry. Percentage of migrated cells is presented as compared to untreated (UT) control taken as 100%. (B) G2 cells were similarly preincubated with 10 μM TL-1 or cTL-1 for the indicated periods of time and percentage of migrated cells is depicted. (D) Homing assay. G2 cells were similarly preincubated with 10 μM TL-1 or cTL-1 for 3 hrs, washed and i.v. injected (10×10^6/mouse) to non-irradiated NOD/SCID mice. Percentage of G2 cells in the murine BM and spleens was determined by staining with anti-human CD45 Ab and compared with untreated (UT) cells. […]
G2 cells (10×10^6/mL) pretreated with the peptides for 3 hrs as described above, were injected i.v. into non-irradiated NOD/SCID mice, which were sacrificed 16 hrs later. Samples of BM cells flushed from both femur and tibia bones and spleen cell suspension were prepared, and the percentage of human cells was determined by staining with anti-human CD45-FITC mAb (ImmunoQuality Products, Groningen, The Netherlands) as described (Spiegel, A., et al., 2004).

In the case of N=C(N)NCCC[C@@H]1NC(=O)CNC(=O)[C@H](CCCNC(=N)N)NC(=O)[C@H](CCCCN)NC(=O)[C@H](CCCCN)NC(=O)[C@H](CCCNC(=N)N)NC(=O)[C@H](CCCNC(=N)N)NC(=O)[C@H](CS)NC(=O)[C@H](CS)NC(=O)[C@H](CCCCN)NC1=O [cyclic TL-1, 1,10-cyclo[RGRKCCRRKK]] (cyclo(CCRRKKRGRK)), the “homing of pretreated G2 cells to the BM” value is reported as “decrease the homing” and the “homing of pretreated G2 cells to the spleen” value is reported as “decreased G2 cell homing”.
